This is an account of results in PubChem BioAssay (NCI).

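Exposure lasted 48 hours, with cells grown in 96-well plates and compounds tested at five concentrations. The concentration for full growth arrest is given as TGI.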 Where a SMILES comes first, the peptide text is derived from it. [ ]: non-standard residue; d: D form. The star is where a group is joined. hSer = N[CH](CCO)C(=O)O; Boc = CC(C)(C)OC(=O)*

Some test systems named below: EKVX NSCLC; MDA-MB-231 breast; MDA-N; MOLT-4 leukemia; SK-MEL-5 melanoma; SNB-19 CNS; TK-10 renal; UO-31 renal; CCRF-CEM leukemia; RPMI-8226 leukemia.
Holding throughout (assay): inhibition of tumour cell growth, NCI panel, 48 h

`N/C(CC/C(N)=N\O)=N\O`: the TGI in the assay on EKVX NSCLC, in the assay on MDA-MB-231 breast, in the assay on MDA-N, in the assay with MOLT-4 leukemia, in the assay on SK-MEL-5 melanoma and in the assay on SNB-19 CNS was > 100 µM each time. The TGI in the assay on TK-10 renal and in the assay on UO-31 renal was > 100 µM throughout.
Take `CCCCCCCCCCCCNC(=O)NCC(OCC)OCC`: the TGI in the assay on CCRF-CEM leukemia, with EKVX NSCLC, in the assay with MDA-MB-231 breast, with MDA-N, in the assay with MOLT-4 leukemia and with RPMI-8226 leukemia was > 10 µM in each case. Further, the TGI with SK-MEL-5 melanoma, in the assay on SNB-19 CNS and with TK-10 renal was > 10 µM throughout.
`COC1/C=C\C=C(/C)C(=O)NC2=CC(=O)C(NCCCl)=C(CC(C)CC(OC)C(O)C(C)/C=C(/C)C1OC(N)=O)C2=O` (stereo not given): the TGI was found to be 21.9 µM in the assay with CCRF-CEM leukemia; 22.7 µM with EKVX NSCLC; 20.4 µM with MDA-MB-231 breast; 12.3 µM with MDA-N; 5.13 µM in the assay with MOLT-4 leukemia; 31.4 µM in the assay on RPMI-8226 leukemia. Further, the TGI amounted to 3.11 µM with SK-MEL-5 melanoma, 13.6 µM with SNB-19 CNS, 14.3 µM in the assay with TK-10 renal and 10.6 µM with UO-31 renal.
In the case of `COC(=O)c1ccc(CN2CCc3c([nH]c4ccccc34)C2CO)o1` (stereo not given), the TGI with CCRF-CEM leukemia, with EKVX NSCLC, with MDA-MB-231 breast, with MDA-N, in the assay on MOLT-4 leukemia and in the assay on RPMI-8226 leukemia was > 10 µM in each case. The TGI with SK-MEL-5 melanoma and in the assay on TK-10 renal was > 10 µM each time.
As to `COCCC(NC(=O)C(CC(C)C)NC(=O)OC(C)(C)C)C(N)=O` (stereo not drawn) (Boc-Leu-[hSer](Me)-NH2; configuration not given here), the TGI in the assay on CCRF-CEM leukemia, with EKVX NSCLC, with MDA-MB-231 breast, with MDA-N, in the assay on MOLT-4 leukemia and in the assay with RPMI-8226 leukemia was > 100 µM in each case. Also, the TGI with SK-MEL-5 melanoma, with SNB-19 CNS, in the assay with TK-10 renal and in the assay on UO-31 renal was > 100 µM each time.
Regarding `COc1c2cc(C(C)(C)C)cc1CSCc1cc(C(C)(C)C)cc(c1OC)CCCCC2`, the TGI in the assay with CCRF-CEM leukemia, in the assay with MDA-MB-231 breast, with MDA-N, with MOLT-4 leukemia, with SK-MEL-5 melanoma and with SNB-19 CNS was > 50 µM in each case. Also, the TGI with TK-10 renal and in the assay with UO-31 renal was > 50 µM each time.
As for `O=S(=O)(O)c1cc(Cl)c(O)c2ncc(Cl)cc12`, the TGI was > 100 µM in the assay on CCRF-CEM leukemia; > 100 µM in the assay with EKVX NSCLC; > 100 µM with MDA-MB-231 breast; > 100 µM in the assay on MDA-N; 66.4 µM with MOLT-4 leukemia; > 100 µM in the assay on RPMI-8226 leukemia. The TGI in the assay with SK-MEL-5 melanoma, in the assay with SNB-19 CNS and with UO-31 renal was > 100 µM each time.
With `CC(C)(C)C1CCC2c3c([nH]c4ccccc34)C3C(=O)N(c4cc(Br)cc(Br)c4)C(=O)C3C2C1` (stereo not given), the TGI with CCRF-CEM leukemia is 25.1 µM; in the assay with EKVX NSCLC, 59.4 µM; in the assay with MDA-MB-231 breast it was 58.8 µM; in the assay with MDA-N it was > 100 µM; in the assay with MOLT-4 leukemia, 38.2 µM; with RPMI-8226 leukemia it was > 100 µM. The TGI in the assay with SK-MEL-5 melanoma is > 100 µM; in the assay with TK-10 renal it was 59.2 µM; in the assay with UO-31 renal it was 46.2 µM.
As for `CCOC(=O)C1NCCc2c1[nH]c1ccccc21` (stereo not given), the TGI with CCRF-CEM leukemia, with EKVX NSCLC, in the assay on MDA-MB-231 breast, in the assay with MDA-N, in the assay with MOLT-4 leukemia and in the assay on RPMI-8226 leukemia was > 10 µM each time. Moreover, the TGI in the assay with SK-MEL-5 melanoma and in the assay with TK-10 renal was > 10 µM in each case.
With `COc1ccc(-c2nc3ncccn3c2-c2ccc(S(C)=O)cc2)cc1` (stereo not given), the TGI in the assay with CCRF-CEM leukemia, in the assay on MDA-MB-231 breast, in the assay with MDA-N, in the assay with MOLT-4 leukemia, with RPMI-8226 leukemia and with SK-MEL-5 melanoma was > 100 µM in each case. Further, the TGI in the assay on SNB-19 CNS and in the assay on UO-31 renal was > 100 µM throughout.
On to `COc1ccc(CN2C(=O)CCC/C=C\[C@H]2CI)cc1`, for which the TGI in the assay on EKVX NSCLC is 22.5 µM; with MDA-MB-231 breast, 23 µM; with MDA-N, 25.8 µM; with MOLT-4 leukemia, 25.6 µM; with RPMI-8226 leukemia, 31.2 µM; in the assay on SK-MEL-5 melanoma it was 25.1 µM. In addition, the values for the TGI in the assay with SNB-19 CNS, in the assay on TK-10 renal and with UO-31 renal were 25.9 µM, 25 µM and 23.8 µM, respectively.
`COc1cc2c(cc1OC)C(=O)N(c1ccc(O)cc1)C2`: the TGI in the assay on CCRF-CEM leukemia, in the assay with EKVX NSCLC, with MDA-MB-231 breast, in the assay on MDA-N, in the assay on MOLT-4 leukemia and in the assay with RPMI-8226 leukemia was > 100 µM each time. In addition, the TGI in the assay with SK-MEL-5 melanoma, with SNB-19 CNS and in the assay with TK-10 renal was > 100 µM in each case.
For the molecule `O=C(C=P(c1ccccc1)(c1ccccc1)c1ccccc1)C12CC3CC(CC(C3)C1)C2`, the TGI in the assay on CCRF-CEM leukemia worked out at 32.7 µM; with EKVX NSCLC it was 29.3 µM; in the assay with MDA-MB-231 breast, 32.9 µM; in the assay with MDA-N, 29.2 µM; in the assay on RPMI-8226 leukemia, 20.6 µM; with SK-MEL-5 melanoma, 28.8 µM. In addition, the TGI worked out at 27 µM in the assay on SNB-19 CNS, 24.4 µM in the assay with TK-10 renal and 27.7 µM in the assay with UO-31 renal.
With `COC(=O)C(=O)C(C(=O)C(=O)Nc1ccccc1C(=O)OC)c1nc2ccc(C(=O)c3ccccc3)cc2[nH]c1=O` (stereo not given), the TGI with EKVX NSCLC, in the assay with MDA-MB-231 breast, in the assay on MDA-N, in the assay with RPMI-8226 leukemia, in the assay with SK-MEL-5 melanoma and in the assay with TK-10 renal was > 100 µM each time. Moreover, in the assay with UO-31 renal, the TGI was > 100 µM.
With `Oc1c(OCc2nnc(CCCCCCCCc3nnc(COc4ccc5ccccc5c4O)n3Nc3ccccc3)n2Nc2ccccc2)ccc2ccccc12`, the TGI is 31.6 µM with EKVX NSCLC; 23.4 µM in the assay on MDA-MB-231 breast; 12.8 µM with MDA-N; > 100 µM with MOLT-4 leukemia; 26.7 µM in the assay with RPMI-8226 leukemia; 3.27 µM in the assay on SK-MEL-5 melanoma. Further, the TGI is 29.8 µM in the assay on SNB-19 CNS, > 64.7 µM with TK-10 renal and 19.6 µM in the assay with UO-31 renal.
